Data as given in patent US8889704B2 (Array BioPharma Inc., priority 2011, dated 2014).
Where a name gives a salt, the structure may show the parent alone.

What was measured:
Type in all cases: biochemical
PIM-1 = PIM-1 (Homo sapiens, UniProt P11309); assay: Enzyme PIM-1 Assay ([33P]ATP incorporation into PIM2tide, filter plate); settings: averaged IC50; 35 μM ATP, 7.5 μM PIM2tide, 0.25 nM PIM-1, 60 min at 22° C.
Method in brief: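 Radiometric assay: 0.25 nM PIM-1 phosphorylates 7.5 μM PIM2tide with 35 μM [γ-33P]ATP in 20 mM MOPS pH 7.4, 10 mM MgCl2, 1 mM DTT, 0.005% Tween-20, 60 min at 22 °C. Product captured on P81 filters, scintillation counted; 10-point 3-fold curve from 10 μM top, 2% DMSO, IC50 by 4-parameter logistic fit of POC.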

[1] = target: T1, GST-tagged recombinant full-length human Pim-2 (Homo sapiens, UniProt Q9P1W9); assay: PIM-2 Assay (as Example A); settings: averaged IC50; 4 μM ATP, 1.0 μM PIM2tide, 1.5 nM Pim-2
T1 construct: GST-tagged recombinant full-length human Pim-2; GST
Method in brief: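 Radiometric filter-binding assay: GST-tagged full-length human Pim-2 (1.5 nM) phosphorylates 1.0 μM PIM2tide with 4 μM [γ-33P]ATP for 60 min at 22 °C in pH 7.4 MOPS buffer, 2% DMSO. 10-point 3-fold dilutions from 10 μM top dose; IC50 from 4-parameter fit of percent of control.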

recombinant rat PIM-3 = recombinant rat PIM-3 (Rattus norvegicus, UniProt O70444); assay: PIM-3 Assay (as Example A); settings: averaged IC50; 30 μM ATP, 3.75 μM PIM2tide, 0.5 nM PIM-3
Method in brief: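 Recombinant rat PIM-3 (0.5 nM) with 3.75 μM PIM2tide and 30 μM [γ-33P]ATP in MOPS pH 7.4 buffer, 60 min at 22 °C; labelled peptide captured on phosphocellulose filters and counted by scintillation. 10-point curve (top dose 10 μM, 2% DMSO); IC50 from 4-parameter fit of percent of control.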

T1 sequence (Q9P1W9 whole entry): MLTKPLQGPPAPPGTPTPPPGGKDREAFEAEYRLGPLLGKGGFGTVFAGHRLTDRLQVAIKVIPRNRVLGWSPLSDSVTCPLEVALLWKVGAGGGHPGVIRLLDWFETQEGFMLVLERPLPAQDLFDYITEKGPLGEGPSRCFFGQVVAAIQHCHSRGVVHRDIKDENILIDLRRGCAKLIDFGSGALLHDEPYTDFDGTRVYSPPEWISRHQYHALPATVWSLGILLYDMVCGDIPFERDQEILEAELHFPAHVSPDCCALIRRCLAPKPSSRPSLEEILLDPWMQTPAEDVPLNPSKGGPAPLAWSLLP
Sequence of PIM-1 (P11309 whole entry, species assumed): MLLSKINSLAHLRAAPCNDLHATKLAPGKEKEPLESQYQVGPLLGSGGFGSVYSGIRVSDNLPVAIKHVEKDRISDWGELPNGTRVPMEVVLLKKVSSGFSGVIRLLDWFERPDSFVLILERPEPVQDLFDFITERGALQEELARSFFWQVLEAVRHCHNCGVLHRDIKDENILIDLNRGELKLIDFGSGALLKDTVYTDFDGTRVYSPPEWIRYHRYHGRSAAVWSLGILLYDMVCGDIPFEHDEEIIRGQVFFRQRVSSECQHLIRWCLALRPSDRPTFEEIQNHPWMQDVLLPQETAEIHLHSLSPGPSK

Row | SMILES | IC50 (PIM-1) [nM] | IC50 [1] [nM] | IC50 (recombinant rat PIM-3) [nM]
1 | COCC(C)(C)Oc1cccc2ccc(-c3nnc4ccc([C@@H](N5CC[C@H](N)C5)C(F)(F)F)cn34)nc12 [Example 263, (S)-1-((R)-2,2,2-trifluoro-1-(3-(8-(1-methoxy-2-methylpropan-2-yloxy)quinolin-2-yl)-[1,2,4]triazolo[4,3-a]pyridin-6-yl)ethyl)pyrrolidin-3-amine formate] | 0.66 | 454 | 3
2 | COCC(C)(C)Oc1cc(F)cc2ccc(-c3nnc4ccc([C@@H](N5CC[C@H](N)C5)C(F)(F)F)cn34)nc12 [Example 264, (S)-1-((R)-2,2,2-trifluoro-1-(3-(6-fluoro-8-(1-methoxy-2-methylpropan-2-yloxy)quinolin-2-yl)-[1,2,4]triazolo[4,3-a]pyridin-6-yl)ethyl)pyrrolidin-3-amine formate] | 0.54 | 255 | 1.3
3 | N[C@H]1CCN([C@H](c2ccc3nnc(-c4ccc5ccc(CCO)cc5n4)n3c2)C(F)(F)F)C1 [Example 265, 2-(2-(6-((R)-1-((S)-3-aminopyrrolidin-1-yl)-2,2,2-trifluoroethyl)-[1,2,4]triazolo[4,3-a]pyridin-3-yl)quinolin-7-yl)ethanol dihydrochloride] | 0.53 | > 1000 | 1.3
4 | CCSc1ccc2ccc(-c3nnc4ccc([C@@H](N5CC[C@H](N)C5)C(F)(F)F)cn34)nc2c1 [Example 266, (S)-1-((R)-1-(3-(7-(ethylthio)quinolin-2-yl)-[1,2,4]triazolo[4,3-a]pyridin-6-yl)-2,2,2-trifluoroethyl)pyrrolidin-3-amine hydrochloride] | 0.5 | 690 | 1
5 | N[C@H]1CCN([C@H](c2ccc3nnc(-c4ccc5ccc(SCCO)cc5n4)n3c2)C(F)(F)F)C1 [Example 267, 2-(2-(6-((R)-1-((S)-3-aminopyrrolidin-1-yl)-2,2,2-trifluoroethyl)-[1,2,4]triazolo[4,3-a]pyridin-3-yl)quinolin-7-ylthio)ethanol hydrochloride] | 0.35 | 350 | 0.7
6 | CC(C)Sc1ccc2ccc(-c3nnc4ccc([C@@H](N5CC[C@H](N)C5)C(F)(F)F)cn34)nc2c1 [Example 268, (S)-1-((R)-2,2,2-trifluoro-1-(3-(7-(isopropylthio)quinolin-2-yl)-[1,2,4]triazolo[4,3-a]pyridin-6-yl)ethyl)pyrrolidin-3-amine hydrochloride] | 0.89 | > 1000 | 3.4
7 | COCCc1ccc2ccc(-c3nnc4ccc([C@@H](N5CC[C@H](N)C5)C(F)(F)F)cn34)nc2c1 [Example 269, (S)-1-((R)-2,2,2-trifluoro-1-(3-(7-(2-methoxyethyl)quinolin-2-yl)-[1,2,4]triazolo[4,3-a]pyridin-6-yl)ethyl)pyrrolidin-3-amine dihydrochloride] | 0.37 | 413 | 2
8 | N#CCOc1cccc2ccc(-c3nnc4ccc([C@@H](N5CC[C@H](N)C5)C(F)(F)F)cn34)nc12 [Example 270, 2-(2-(6-((R)-1-((S)-3-aminopyrrolidin-1-yl)-2,2,2-trifluoroethyl)-[1,2,4]triazolo[4,3-a]pyridin-3-yl)quinolin-8-yloxy)acetonitrile formate] | 0.38 | 434 | 1.9
9 | COCC(COC)Oc1cccc2ccc(-c3nnc4ccc([C@@H](N5CC[C@H](N)C5)C(F)(F)F)cn34)nc12 [Example 271, ((S)-1-((R)-1-(3-(8-(1,3-dimethoxypropan-2-yloxy)quinolin-2-yl)-[1,2,4]triazolo[4,3-a]pyridin-6-yl)-2,2,2-trifluoroethyl)pyrrolidin-3-aminedihydrochloride] | 0.73 | 647 | 4.3
10 | CC(C)(O)COc1cccc2ccc(-c3nnc4ccc([C@@H](N5CC[C@@](C)(N)C5)C(F)(F)F)cn34)nc12 [Example 272, 1-(2-(6-((R)-1-((R)-3-amino-3-methylpyrrolidin-1-yl)-2,2,2-trifluoroethyl)-[1,2,4]triazolo[4,3-a]pyridin-3-yl)quinolin-8-yloxy)-2-methylpropan-2-ol dihydrochloride] | 0.24 | 124 | 0.5
11 | CCSc1cccc2ccc(-c3nnc4ccc([C@@H](N5CC[C@H](N)C5)C(F)(F)F)cn34)nc12 [Example 273, (S)-1-((R)-1-(3-(8-(ethylthio)quinolin-2-yl)-[1,2,4]triazolo[4,3-a]pyridin-6-yl)-2,2,2-trifluoroethyl)pyrrolidin-3-amine hydrochloride] | 25.9 | > 1000 | 43
12 | CCOCCOc1ccc2ccc(-c3nnc4ccc([C@@H](N5CC[C@H](N)C5)C(F)(F)F)cn34)nc2c1 [Example 274, (S)-1-((R)-1-(3-(7-(2-ethoxyethoxy)quinolin-2-yl)-[1,2,4]triazolo[4,3-a]pyridin-6-yl)-2,2,2-trifluoroethyl)pyrrolidin-3-amine dihydrochloride] | 0.4 | 961 | 1.7
13 | COCCCOc1ccc2ccc(-c3nnc4ccc([C@@H](N5CC[C@H](N)C5)C(F)(F)F)cn34)nc2c1 [Example 275, (S)-1-((R)-2,2,2-trifluoro-1-(3-(7-(3-methoxypropoxy)quinolin-2-yl)-[1,2,4]triazolo[4,3-a]pyridin-6-yl)ethyl)pyrrolidin-3-amine dihydrochloride] | 0.2 | 376 | 0.7
14 | COC(C)(C)COc1cccc2ccc(-c3nnc4ccc([C@@H](N5CC[C@H](N)C5)C(F)(F)F)cn34)nc12 [Example 276, (S)-1-((R)-2,2,2-trifluoro-1-(3-(8-(2-methoxy-2-methylpropoxy)quinolin-2-yl)-[1,2,4]triazolo[4,3-a]pyridin-6-yl)ethyl)pyrrolidin-3-amine formate] | 0.2 | 44 | 0.3
15 | CO[C@H](C)COc1ccc2ccc(-c3nnc4ccc([C@@H](N5CC[C@H](N)C5)C(F)(F)F)cn34)nc2c1 [Example 277, (S)-1-((R)-2,2,2-trifluoro-1-(3-(7-((R)-2-methoxypropoxy)quinolin-2-yl)-[1,2,4]triazolo[4,3-a]pyridin-6-yl)ethyl)pyrrolidin-3-amine dihydrochloride] | 0.28 | 231 | 0.7
16 | CC(C)(O)COc1ccc2ccc(-c3nnc4ccc([C@@H](N5CC[C@H](N)C5)C(F)(F)F)cn34)nc2c1 [Example 278, 1-(2-(6-((R)-1-((S)-3-aminopyrrolidin-1-yl)-2,2,2-trifluoroethyl)-[1,2,4]triazolo[4,3-a]pyridin-3-yl)quinolin-7-yloxy)-2-methylpropan-2-ol dihydrochloride] | 0.23 | 180 | 0.4
17 | CCOc1cc2nc(-c3nnc4ccc([C@@H](N5CC[C@@H](CN)C5)C(F)(F)F)cn34)ccc2cc1F [Example 279, ((S)-1-((R)-1-(3-(7-ethoxy-6-fluoroquinolin-2-yl)-[1,2,4]triazolo[4,3-a]pyridin-6-yl)-2,2,2-trifluoroethyl)pyrrolidin-3-yl)methanamine hydrochloride] | 0.96 | 431 | 3.1
18 | CCOc1cc2nc(-c3nnc4ccc([C@@H](N5CC[C@H](CN)C5)C(F)(F)F)cn34)ccc2cc1F [Example 280, ((R)-1-((R)-1-(3-(7-ethoxy-6-fluoroquinolin-2-yl)-[1,2,4]triazolo[4,3-a]pyridin-6-yl)-2,2,2-trifluoroethyl)pyrrolidin-3-yl)methanamine hydrochloride] | 0.62 | 418 | 2.5
19 | CSCCOc1ccc2ccc(-c3nnc4ccc([C@@H](N5CC[C@H](N)C5)C(F)(F)F)cn34)nc2c1 [Example 281, (S)-1-((R)-2,2,2-trifluoro-1-(3-(7-(2-(methylthio)ethoxy)quinolin-2-yl)-[1,2,4]triazolo[4,3-a]pyridin-6-yl)ethyl)pyrrolidin-3-amine hydrochloride] | 0.26 | 242 | 0.7
20 | CCOc1cc2nc(-c3nnc4ccc([C@@H](N5CC[C@@H](N)C5)C(F)(F)F)cn34)ccc2cc1F [Example 282, (R)-1-((R)-1-(3-(7-ethoxy-6-fluoroquinolin-2-yl)-[1,2,4]triazolo[4,3-a]pyridin-6-yl)-2,2,2-trifluoroethyl)pyrrolidin-3-amine hydrochloride] | 0.28 | 166 | 0.8
21 | C[C@@H](O)COc1cccc2ccc(-c3nnc4ccc([C@@H](N5CC[C@H](N)C5)C(F)(F)F)cn34)nc12 [Example 283, (R)-1-(2-(6-((R)-1-((S)-3-aminopyrrolidin-1-yl)-2,2,2-trifluoroethyl)-[1,2,4]triazolo[4,3-a]pyridin-3-yl)quinolin-8-yloxy)propan-2-ol formate] | 0.18 | 194 | 0.7
